EC50 and IC50 data for twelve compounds are collected here from patent US8987195B2 (priority 2012, dated 2015).

Usually pEC50 stands for the EC50 on a negative log10 scale, so that one unit is a factor of ten. The IC50 is the concentration at which inhibition is half-maximal. The pIC50 is −log10 of the IC50, conventionally taken in molar units.

In one experiment the test system is HCV genotype 1b replicon. Kind of experiment: HCV replicon assay, genotype 1b replicon EC50. In kind it is cell-based, Hepatitis C virus. The following applies: read-out: EC50 [gt-1b]. The procedure, abridged:
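Stable neomycin phosphotransferase-encoding replicon cell lines, kept under G418 selection beforehand, were plated with a compound dilution series without G418 and incubated 24-48 hours. Replicon RNA was then quantified, or luciferase activity read. EC50 was calculated as percent of DMSO control by four-parameter fit.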
A general note: A replicon is a self-replicating genome or part of one, used to study replication in cells.

Experiment [1] addresses HCV NS3/4A protease genotype 1b (Hepatitis C virus genotype 1b, UniProt P26663). Kind of experiment: HCV NS3/4A protease time-resolved fluorescence (TRF) assay, Ki against genotype 1b. Type of experiment: biochemical. To be noted: for IC50: IC50 [gt-1b] (nM), NS3/4A genotype 1b, enzyme 0.2 nM; for pIC50: IC50 [gt-1b], NS3/4A protease TRF assay, genotype 1b enzyme 0.2 nM. The procedure, abridged: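 Ki was converted from fitted IC50 using IC50=Ki(1+[S]/KM) and 25 nM substrate. Protease (genotype 1b 0.2 nM, A156T 0.4 nM, 3a 0.025 nM) and compound were pre-mixed 30 min in pH 7.5 HEPES/NaCl/glycerol/DTT buffer. Cleavage then proceeded 2.5 h at room temperature, detected by time-resolved europium fluorescence (340/615 nm).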

[2] abbreviates: Hepatitis C virus, genotype 1b replicon.
[3] abbreviates: Hepatitis C virus, genotype 1b replicon, K+ salt.

SMILES strings stand for the structures. pEC50, pIC50: −log10 of the molar value. Read-outs that look alike come from different tables or passages of the source.

`Cc1nc2ccccc2c2c1O[C@]1(CC2)C[C@H]2C(=O)N[C@]3(C(=O)NS(=O)(=O)C4(C)CC4)C[C@H]3/C=C\CCCCC[C@H](NC(=O)OCC(F)F)C(=O)N2C1` [Example 121, 2,2-difluoroethyl [(2R,6S,12Z,13aS,14aR,16aS)-5′-methyl-14a-{[(1-methylcyclopropyl)sulfonyl]carbamoyl}-5,16-dioxo-1,1′,2′,5,6,7,8,9,10,11,13a,14,14a,15,16,16a-hexadecahydrospiro[cyclopropa[e]pyrrolo[1,2-a][1,4]diazacyclopentadecine-2,3′-pyrano[2,3-c]quinolin]-6-yl]carbamate]: in the experiment with HCV genotype 1b replicon (setting [2]), the pEC50 is 8.19. The compound further returned an IC50 in experiment [1] of 0.025 nM.

Consider `COc1ccc2nc(C)c3c(c2c1)C(F)(F)C[C@]1(C[C@H]2C(=O)N[C@]4(C(=O)NS(=O)(=O)C5(C)CC5)C[C@H]4/C=C\CCCCC[C@H](NC(=O)OC(C)(C)C)C(=O)N2C1)O3` [Example 20, tert-Butyl (2S,6S,13aS,14aR,16aS,Z)-1′,1′-difluoro-9′-methoxy-5′-methyl-14a-(1-methylcyclopropylsulfonylcarbamoyl)-5,16-dioxo-1′,2′,3,5,6,7,8,9,10,11,13a,14,14a,15, 16,16a-hexadecahydro-1H-spiro[cyclopropa[e]pyrrolo[1,2-a][1,4]diazacyclopentadecine-2,3′-pyrano[2,3-c]quinoline]-6-ylcarbamate], for which, in the experiment with HCV genotype 1b replicon (setting [3]), the pEC50 was 8.75. Moreover, in experiment [1] (K+ salt), the 50% inhibitory concentration (IC50) is 0.009 nM.

Regarding `Cc1nc2ccccc2c2c1O[C@]1(CC2)C[C@H]2C(=O)N[C@]3(C(=O)NS(=O)(=O)C4(C)CC4)C[C@H]3/C=C\CCCCC[C@H](NC(=O)NCCc3ccccc3)C(=O)N2C1` [Example 288, (2R,6S,12Z,13aS,14aR,16aS)-5′-methyl-N-[(1-methylcyclopropyl)sulfonyl]-5,16-dioxo-6-{[(2-phenylethyl)carbamoyl]amino}-1,1′,2′,6,7,8,9,10,11,13a,14,15,16,16a-tetradecahydrospiro[cyclopropa[e]pyrrolo[1,2-a][1,4]diazacyclopentadecine-2,3′-pyrano[2,3-c]quinoline]-14a(5H)-carboxamide], the negative-log EC50 (pEC50) in the experiment with HCV genotype 1b replicon (Hepatitis C virus, genotype 1b replicon, HCOOH salt) is 6.21. The concentration for half-maximal inhibition (IC50) in experiment [1] (HCOOH salt) was 0.131 nM.

In the case of `COc1ccc2nc(C)c3c(c2n1)CC[C@]1(C[C@H]2C(=O)N[C@]4(C(=O)NS(=O)(=O)C5(C)CC5)C[C@H]4/C=C\CCCCC[C@H](NC(=O)OC4(C)CC4)C(=O)N2C1)O3` [Example 364, 1-methylcyclopropyl [(2R,6S,12Z,13aS,14aR,16aS)-2′-methoxy-6′-methyl-14a-{[(1-methylcyclopropyl)sulfonyl]carbamoyl}-5,16-dioxo-1,5,6,7,8,9,9′,10,10′,11,13a,14,14a,15,16,16a-hexadecahydrospiro[cyclopropa[e]pyrrolo[1,2-a][1,4]diazacyclopentadecine-2,8′-pyrano[2,3-c][1,5]naphthyridin]-6-yl]carbamate], in the experiment on HCV genotype 1b replicon (Hepatitis C virus, HCV replicon, genotype 1b), the pEC50 was 8.26. Besides, the pIC50 in experiment [1] is 10.92.

For `COc1ccc2nc(C(F)(F)F)c3c(c2c1)CC[C@]1(C[C@H]2C(=O)N[C@]4(C(=O)NS(=O)(=O)C5(C)CC5)C[C@H]4/C=C\CCCCC[C@H](NC(=O)OC4(C)CC4)C(=O)N2C1)O3` [Example 216, 1-methylcyclopropyl [(2R,6S,12Z,13aS,14aR,16aS)-9′-methoxy-14a-{[(1-methylcyclopropyl)sulfonyl]carbamoyl}-5,16-dioxo-5′-(trifluoromethyl)-1,1′,2′,5,6,7,8,9,10,11,13a,14,14a,15,16,16a-hexadecahydrospiro[cyclopropa[e]pyrrolo[1,2-a][1,4]diazacyclopentadecine-2,3′-pyrano[2,3-c]quinolin]-6-yl]carbamate], the pEC50 with HCV genotype 1b replicon (setting [2]) is 8.19. The compound also had an IC50 in experiment [1] of 0.013 nM.

In the case of `COc1ccc2nc(C3CC3)c3c(c2c1)CC[C@]1(C[C@H]2C(=O)N[C@]4(C(=O)NS(=O)(=O)C5(C)CC5)C[C@H]4/C=C\CCCCC[C@H](NC(=O)OC4(C)CCC4)C(=O)N2C1)O3` [Example 152, 1-methylcyclobutyl [(2R,6S,12Z,13aS,14aR,16aS)-5′-cyclopropyl-9′-methoxy-14a-{[(1-methylcyclopropyl)sulfonyl]carbamoyl}-5,16-dioxo-1,1′,2′,5,6,7,8,9,10,11,13a,14,14a,15,16,16a-hexadecahydrospiro[cyclopropa[e]pyrrolo[1,2-a][1,4]diazacyclopentadecine-2,3′-pyrano[2,3-c]quinolin]-6-yl]carbamate], in the experiment with HCV genotype 1b replicon (setting [3]), the pEC50 was 9.14. Besides, the IC50 in experiment [1] (K+ salt) is 0.014 nM.

Take `Cc1nc2ccccc2c2c1O[C@]1(CC2)C[C@H]2C(=O)N[C@]3(C(=O)NS(=O)(=O)C4(C)CC4)C[C@H]3/C=C\CCCCC[C@H](N(CCC(C)(C)C)CCC(C)(C)C)C(=O)N2C1` [Example 163, (2R,6S,12Z,13aS,14aR,16aS)-6-[bis(3,3-dimethylbutyl)amino]-5′-methyl-N-[(1-methylcyclopropyl)sulfonyl]-5,16-dioxo-1,1′,2′,6,7,8,9,10,11,13a,14,15,16,16a-tetradecahydrospiro[cyclopropa[e]pyrrolo[1,2-a][1,4]diazacyclopentadecine-2,3′-pyrano[2,3-c]quinoline]-14a(5H)-carboxamide]: the pEC50 with HCV genotype 1b replicon (setting [2]) was less than 7.00. For the same compound, inhibition in experiment [1] was half-maximal at 6.21 nM (IC50).

In the case of `Cc1nc2ccccc2c2c1O[C@]1(CC2)C[C@H]2C(=O)N[C@]3(C(=O)NS(=O)(=O)C4(C)CC4)C[C@H]3/C=C\CCCCC[C@H](NC(=O)OC3CCC(F)(F)C3)C(=O)N2C1` (stereo partly drawn) [Example 376, 3,3-difluorocyclopentyl [(2R,6S,12Z,13aS,14aR,16aS)-5′-methyl-14a-{[(1-methylcyclopropyl)sulfonyl]carbamoyl}-5,16-dioxo-1,1′,2′,5,6,7,8,9,10,11,13a,14,14a,15,16,16a-hexadecahydrospiro[cyclopropa[e]pyrrolo[1,2-a][1,4]diazacyclopentadecine-2,3′-pyrano[2,3-c]quinolin]-6-yl]carbamate], the negative logarithm of the EC50 (pEC50) in the experiment on HCV genotype 1b replicon (HCV replicon, genotype 1b) is 8.57. This compound showed a pIC50 in experiment [1] of 10.89.

Turning to `COc1ccc2nc(C)c3c(c2c1)CC[C@]1(C[C@H]2C(=O)N[C@]4(C(=O)NS(=O)(=O)C5(C)CC5)C[C@H]4/C=C\CCCCC[C@H](NC(=O)OC4(C)CC4)C(=O)N2C1)O3` [Example 141, 1-methylcyclopropyl [(2R,6S,12Z,13aS,14aR,16aS)-9′-methoxy-5′-methyl-14a-{[(1-methylcyclopropyl)sulfonyl]carbamoyl}-5,16-dioxo-1,1′,2′,5,6,7,8,9,10,11,13a,14,14a,15,16,16a-hexadecahydrospiro[cyclopropa[e]pyrrolo[1,2-a][1,4]diazacyclopentadecine-2,3′-pyrano[2,3-c]quinolin]-6-yl]carbamate], the pEC50 in the experiment on HCV genotype 1b replicon (setting [2]) is 8.83. This compound also yielded an IC50 in experiment [1] of 0.003 nM.

For `Cc1cccc(N[C@H]2CCCCC/C=C\[C@@H]3C[C@@]3(C(=O)NS(=O)(=O)C3(C)CC3)NC(=O)[C@@H]3C[C@]4(CCc5c(c(C)nc6ccccc56)O4)CN3C2=O)n1` [Example 343, (2R,6S,12Z,13aS,14aR,16aS)-5′-methyl-N-[(1-methylcyclopropyl)sulfonyl]-6-[(6-methylpyridin-2-yl)amino]-5,16-dioxo-1,1′,2′,6,7,8,9,10,11,13a,14,15,16,16a-tetradecahydrospiro[cyclopropa[e]pyrrolo[1,2-a][1,4]diazacyclopentadecine-2,3′-pyrano[2,3-c]quinoline]-14a(5H)-carboxamide], the pEC50 in the experiment on HCV genotype 1b replicon (setting [2]) is 8.23. In experiment [1], this compound yielded a 50% inhibitory concentration (IC50) of 0.05 nM.

With `COc1ccc2nc(C(F)F)c3c(c2c1)CC[C@]1(C[C@H]2C(=O)N[C@]4(C(=O)NS(=O)(=O)C5(C)CC5)C[C@H]4/C=C\CCCCC[C@H](NC(=O)O[C@H](C)C(C)C)C(=O)N2C1)O3` [Example 443, (2R)-3-methylbutan-2-yl [(2R,6S,12Z,13aS,14aR,16aS)-5′-(difluoromethyl)-9′-methoxy-14a-{[(1-methylcyclopropyl)sulfonyl]carbamoyl}-5,16-dioxo-1,1′,2′,5,6,7,8,9,10,11,13a,14,14a,15,16,16a-hexadecahydrospiro[cyclopropa[e]pyrrolo[1,2-a][1,4]diazacyclopentadecine-2,3′-pyrano[2,3-c]quinolin]-6-yl]carbamate], the pEC50 with HCV genotype 1b replicon (Hepatitis C virus, HCV replicon, genotype 1b, K+ salt) was 8.75. Moreover, the pIC50 in experiment [1] (K+ salt) was 10.60.

Consider `Cc1nc2ccc(OC(F)F)cc2c2c1O[C@]1(CC2)C[C@H]2C(=O)N[C@]3(C(=O)NS(=O)(=O)C4(C)CC4)C[C@H]3/C=C\CCCCC[C@H](NC(=O)OCC(C)C)C(=O)N2C1` [Example 267, 2-methylpropyl [(2R,6S,12Z,13aS,14aR,16aS)-9′-(difluoromethoxy)-5′-methyl-14a-{[(1-methylcyclopropyl)sulfonyl]carbamoyl}-5,16-dioxo-1,1′,2′,5,6,7,8,9,10,11,13a,14,14a,15,16,16a-hexadecahydrospiro[cyclopropa[e]pyrrolo[1,2-a][1,4]diazacyclopentadecine-2,3′-pyrano[2,3-c]quinolin]-6-yl]carbamate], for which the pEC50 in the experiment on HCV genotype 1b replicon (setting [3]) is 8.45. The IC50 in experiment [1] (K+ salt) is 0.006 nM.
